As a reminder, the Ki is the equilibrium dissociation constant of an inhibitor or competing ligand from its target.

The structures appear in SMILES notation.

Assay [1] has as its system primary human pan T cells. Nature of the assay: Human T-cell IL2 Induction Assay. It counts as cell-based. Particulars: anti-CD3/anti-CD28 stimulated, 4 hours. On the procedure:
Example B3: Human T-cell IL2 Induction Assay
Anti-CD3 and anti-CD28 activates TCR signaling in primary human pan T cells leading to IL-2 promoter induction. Secreted IL-2 in cell culture supernatant is detected by electrochemiluminescence using a capture antibody against IL-2 and an anti-IL-2 antibody labeled with SULFO-tag.
See www.mesoscale.com for additional electrochemiluminescence technology information.
Incubate primary human pan T cells with varying concentrations of test compounds for 30 minutes in a humidified incubator at 37° C. and 5% CO2. Transfer cells to a plate pre-coated with a fixed concentration of anti-human CD3 (determined separately for each donor lot) and add soluble anti-human CD28 (final concentration=1 μg/ml). Stimulate cells in a humidified incubator at 37° C. and 5% CO2 for 4 hours. Transfer 25 μl of supernatant to a MSD single spot plate pre-coated with an anti-human IL-2 antibody. Incubate MSD plate overnight at 4° C. with gentle shaking. Wash MSD plate 4× with wash buffer. Add SULFO-tagged detection antibody at a 1:50 dilution and incubate at room temperature shaking for 2 hours. Wash MSD plate 4× with wash buffer and add 150 μl 2×MSD read buffer. Read on an MSD instrument. Normalize data to stimulated/untreated controls to calculate % activity at each concentration of compound.
• Frozen Primary Human Pan-T Cells (StemCell Technologies #70024) • anti-human CD3 (OKT3 clone) (eBioscience #16-0037-81) • anti-human CD28 (CD28.2 clone) (BD #555725) • 96-well Human IL-2 tissue culture kit (MSD #K151AHB-4) Instrumentation: • Biomek FX for liquid handling (Beckman Coulter) • MSD SECTOR S 600 (Meso Scale Discovery)
Exemplary compounds of Formula (I) were tested in the human T-cell IL-2 induction assays. The % increase measured for IL-2 in cells treated by the test compounds relative to untreated cells are provided in Table B2 for certain compounds.

Assay [2] has as its target HPK1 (Homo sapiens (Human), UniProt Q92918, S171E/T165E). In words: HPK1-FL HTRF Enzymatic Assay (HTRF). It counts as biochemical. Particulars: HPK full length T165E S171E 0.125 nM, ATP 1 mM, Biotin-SLP76 100 nM, read-out: HPK1 Ki (nM), H = HTRF. The procedure, abridged:
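Full-length HPK1 double mutant, preincubated 30 min with compound, then phosphorylates Biotin-SLP-76 at 1 mM ATP for 60 min in HEPES pH 7.5/MgCl2/TCEP/Brij-35 buffer. Phospho-product detected by TR-FRET (Eu-anti-pSLP76, SA-XL665) after 60 min; 665/620 ratio gives % activity, from which Ki is determined.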

Sequence of HPK1 (Q92918 whole entry T165E/S171E): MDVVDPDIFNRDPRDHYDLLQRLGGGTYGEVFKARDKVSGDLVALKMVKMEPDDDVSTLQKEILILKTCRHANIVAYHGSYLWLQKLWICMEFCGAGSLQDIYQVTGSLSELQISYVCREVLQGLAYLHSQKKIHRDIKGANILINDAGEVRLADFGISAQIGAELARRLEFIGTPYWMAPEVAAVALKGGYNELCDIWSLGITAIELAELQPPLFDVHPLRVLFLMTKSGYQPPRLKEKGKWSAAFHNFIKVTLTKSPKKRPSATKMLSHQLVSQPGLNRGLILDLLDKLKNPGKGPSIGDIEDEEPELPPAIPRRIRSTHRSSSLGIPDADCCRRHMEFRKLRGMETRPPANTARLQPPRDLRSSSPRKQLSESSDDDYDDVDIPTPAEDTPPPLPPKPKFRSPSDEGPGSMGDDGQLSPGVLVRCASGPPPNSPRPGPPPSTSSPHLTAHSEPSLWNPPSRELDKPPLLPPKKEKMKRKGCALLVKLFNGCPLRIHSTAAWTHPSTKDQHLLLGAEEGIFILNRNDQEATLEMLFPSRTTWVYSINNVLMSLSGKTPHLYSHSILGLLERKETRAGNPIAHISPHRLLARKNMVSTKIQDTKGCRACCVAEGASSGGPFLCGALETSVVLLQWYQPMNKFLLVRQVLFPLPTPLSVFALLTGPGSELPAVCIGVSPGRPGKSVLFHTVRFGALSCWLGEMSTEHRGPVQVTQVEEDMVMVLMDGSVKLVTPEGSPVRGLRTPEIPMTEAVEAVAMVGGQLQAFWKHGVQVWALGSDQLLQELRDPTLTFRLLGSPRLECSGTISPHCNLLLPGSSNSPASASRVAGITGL

Turning to `Cc1c(-c2cc3cc(Nc4cc5n(n4)CC(=O)N(C(C)C)C[C@@H]5O)ncc3cc2F)cnc2c1NCCO2` [Compound 141b, (S)-2-((7-fluoro-6-(8-methyl-2,3-dihydro-1H-pyrido[2,3-b][1,4]oxazin-7-yl)isoquinolin-3-yl)amino)-4-hydroxy-6-isopropyl-5,6-dihydro-4H-pyrazolo[1,5-d][1,4]diazepin-7(8H)-one], in assay [1] (assayed concentration 0.31 μM), the “% IL-2 increase relative to untreated cells” value amounted to 350%.
Take `Cc1c(N)cncc1-c1cc2cc(Nc3cc4n(n3)CC(=O)N(C(C)C)CC4)ncc2c(C)c1C#N` [Compound 130, 6-(5-amino-4-methyl-3-pyridyl)-3-[(6-isopropyl-7-oxo-5,8-dihydro-4H-pyrazolo[1,5-d][1,4]diazepin-2-yl)amino]-8-methyl-isoquinoline-7-carbonitrile]: the Ki in assay [2] stood at 0.068 nM. Moreover, in assay [1] (assayed concentration 0.10 μM), the “% IL-2 increase relative to untreated cells” value is listed as 308%.
In the case of `Cc1c(N)cncc1-c1cc2cc(Nc3cc4n(n3)Cc3nncn3CC4)ncc2cc1F` [Compound 139, N-(6-(5-amino-4-methylpyridin-3-yl)-7-fluoroisoquinolin-3-yl)-5,6-dihydro-11H-pyrazolo[1,5-d][1,2,4]triazolo[4,3-a][1,4]diazepin-8-amine], the Ki in assay [2] turned out to be 0.076 nM. In assay [1] (assayed concentration 0.31 μM), the “% IL-2 increase relative to untreated cells” value is 154%.
For `Cc1c(N)cncc1-c1cc2cc(Nc3cc4n(n3)CC(=O)N(C(C)C)CC4)ncc2c(F)c1F` [Compound 118, 2-((6-(5-amino-4-methylpyridin-3-yl)-7,8-difluoroisoquinolin-3-yl)amino)-6-isopropyl-5,6-dihydro-4H-pyrazolo[1,5-d][1,4]diazepin-7(8H)-one], in that order: 0.065 nM and 400%.
Consider `Cc1c(N)cncc1-c1cc2cc(Nc3cc4n(n3)CC(=O)N(C(C)C)CC4)ncc2cc1Cl` [Compound 140, 2-((6-(5-amino-4-methylpyridin-3-yl)-7-chloroisoquinolin-3-yl)amino)-6-isopropyl-5,6-dihydro-4H-pyrazolo[1,5-d][1,4]diazepin-7(8H)-one], for which the inhibitory constant (Ki) in assay [2] was 0.086 nM. The “% IL-2 increase relative to untreated cells” value in assay [1] (assayed concentration 0.10 μM) is on record as 304%.
For `Cc1c(N)cncc1-c1cc2cc(Nc3cc4n(n3)CC(=O)N(C(C)C)CC4)ncc2cc1F` [Compound 119, 2-((6-(5-amino-4-methylpyridin-3-yl)-7-fluoroisoquinolin-3-yl)amino)-6-isopropyl-5,6-dihydro-4H-pyrazolo[1,5-d][1,4]diazepin-7(8H)-one], in that order: 0.05 nM and 542%.

The values are drawn from patent US12378249B2, “Isoquinoline compounds and uses thereof” (Genentech, Inc., priority 2018, dated 2025).
